Test results published in patent US4113855A, “Composition of matter and process” (The Upjohn Company, priority 1977, dated 1978).

Legend:
[1] = tested on: P. aeruginosa Strain No. 6435; assay: standard agar disc plate assay using 6.35 mm paper discs; assay type: cell-based, Pseudomonas aeruginosa; conditions: for Zones of Inhibition: strain 6435, 0.03 ml of 1 mg/ml per 6.35 mm disc; for zone of inhibition at 1000 µg/mL: Pseudomonas aeruginosa, read-out: Zones of Inhibition
[2] = tested on: P. aeruginosa Strain No. 6436; assay: as above; assay type: cell-based, Pseudomonas aeruginosa; conditions: for Zones of Inhibition: strain 6436, 0.03 ml of 1 mg/ml per 6.35 mm disc; for zone of inhibition at 1000 µg/mL: Pseudomonas aeruginosa, read-out: Zones of Inhibition
[3] = tested on: P. aeruginosa Strain No. 6431; assay: as above; assay type: cell-based, Pseudomonas aeruginosa; conditions: for Zones of Inhibition: strain 6431, 0.03 ml of 1 mg/ml per 6.35 mm disc; for zone of inhibition at 1000 µg/mL: Pseudomonas aeruginosa, read-out: Zones of Inhibition
[4] = tested on: P. aeruginosa Strain No. 6429; assay: as above; assay type: cell-based, Pseudomonas aeruginosa; conditions: for Zones of Inhibition: strain 6429, 0.03 ml of 1 mg/ml per 6.35 mm disc; for zone of inhibition at 1000 µg/mL: Pseudomonas aeruginosa, read-out: Zones of Inhibition
[5] = tested on: Pseudomonas aeruginosa strains obtained from Bronson Hospital; assay: antibacterial activity against hospital strains; assay type: cell-based; conditions: Kalamazoo
[6] = tested on: P. aeruginosa Strain No. 6434; assay: standard agar disc plate assay using 6.35 mm paper discs; assay type: cell-based, Pseudomonas aeruginosa; conditions: for Zones of Inhibition: strain 6434, 0.03 ml of 1 mg/ml per 6.35 mm disc; for zone of inhibition at 1000 µg/mL: Pseudomonas aeruginosa, read-out: Zones of Inhibition
[7] = tested on: P. aeruginosa Strain No. 6433; assay: as above; assay type: cell-based, Pseudomonas aeruginosa; conditions: for Zones of Inhibition: strain 6433, 0.03 ml of 1 mg/ml per 6.35 mm disc
[8] = tested on: P. aeruginosa Strain No. 6430; assay: as above; assay type: cell-based, Pseudomonas aeruginosa; conditions: for Zones of Inhibition: strain 6430, 0.03 ml of 1 mg/ml per 6.35 mm disc; for zone of inhibition at 1000 µg/mL: Pseudomonas aeruginosa, read-out: Zones of Inhibition
[9] = tested on: Pseudomonas aeruginosa GN-315 (UC 6149); assay: antibacterial activity; assay type: cell-based
Gram-negative bacteria = assay: antibacterial activity; assay type: cell-based
[10] = tested on: P. aeruginosa Strain No. 6434; assay: nutrient broth dilution test; assay type: cell-based, Pseudomonas aeruginosa; conditions: strain 6434; 32° C., 18 hours
Description: (§1) Antibiotic 354 was also tested on a nutrient broth dilution test against the same Pseudomonas strains listed above. The test tubes were incubated at 32° C. for 18 hours.

[11] = tested on: P. aeruginosa Strain No. 6431; assay: nutrient broth dilution test; assay type: cell-based, Pseudomonas aeruginosa; conditions: strain 6431; 32° C., 18 hours
Description: as §1

[12] = tested on: P. aeruginosa Strain No. 6433; assay: nutrient broth dilution test; assay type: cell-based, Pseudomonas aeruginosa; conditions: strain 6433; 32° C., 18 hours
Description: as §1

[13] = tested on: P. aeruginosa Strain No. 6436; assay: nutrient broth dilution test; assay type: cell-based, Pseudomonas aeruginosa; conditions: strain 6436; 32° C., 18 hours
Description: as §1

[14] = tested on: P. aeruginosa Strain No. 6430; assay: nutrient broth dilution test; assay type: cell-based, Pseudomonas aeruginosa; conditions: strain 6430; 32° C., 18 hours
Description: as §1

[15] = tested on: P. aeruginosa Strain No. 6429; assay: nutrient broth dilution test; assay type: cell-based, Pseudomonas aeruginosa; conditions: strain 6429; 32° C., 18 hours
Description: as §1

[16] = tested on: P. aeruginosa Strain No. 6435; assay: nutrient broth dilution test; assay type: cell-based, Pseudomonas aeruginosa; conditions: strain 6435; 32° C., 18 hours
Description: as §1

species of Proteus = assay: antibacterial activity; assay type: cell-based
Pseudomonas mildenbergii = assay: standard disc plate assay (12.7 mm assay discs); assay type: cell-based; conditions: 1 mg/ml, 12.7 mm discs
species of Pseudomonas = assay: antibacterial activity; assay type: cell-based
[17] = tested on: Pseudomonas mildenbergii (UC 3029); assay: agar disc plate assay, biounits; assay type: cell-based; conditions: vs. UC 3029; BU = concentration giving a 20 mm zone of inhibition
Description: The assay is an agar disc plate assay using the microorganism P. mildenbergii. The agar medium is buffered with 0.1 M phosphate buffer at a pH of 7.4. A unit volume (0.08 ml) of solution containing the substance to be assayed is placed on a 12.7 mm paper disc which is then placed on an agar plate seeded with the assay organism. The agar plate is then incubated for 16-18 hours at 37° C. A biounit (BU) is defined as the concentration of the antibiotic which gives a 20 mm zone of inhibition under the above assay conditions.

[18] = tested on: Salmonella schottmuelleri UC 126; assay: microplate broth dilution assay using nutrient broth; assay type: cell-based
Text: (§2) On testing antibiotic 354 by a microplate broth dilution assay using nutrient broth the following spectrum was observed.

Salmonella typhi = assay: as above; assay type: cell-based
Text: as §2

[19] = tested on: Klebsiella pneumoniae UC 58; assay: as above; assay type: cell-based
Text: as §2

[20] = tested on: Klebsiella pneumoniae UC 57; assay: as above; assay type: cell-based
Text: as §2

[21] = tested on: Streptococcus fecalis UC 694; assay: as above; assay type: cell-based
Text: as §2

Proteus mirabilis = assay: as above; assay type: cell-based
Text: as §2

[22] = tested on: Staphylococcus aureus UC 76; assay: as above; assay type: cell-based
Text: as §2

[23] = tested on: Serratia marcescens UC 131; assay: as above; assay type: cell-based
Text: as §2

Bacillus subtillis = assay: standard disc plate assay (12.7 mm assay discs); assay type: cell-based; conditions: 1 mg/ml, 12.7 mm discs
basicity = assay type: physicochemical

Compound: Polymyxin B
- Zones of Inhibition [1]: trace
- Zones of Inhibition [2]: 9 mm
- Zones of Inhibition [3]: trace
- Zones of Inhibition [4]: trace
- activity / resistance, Bronson Hospital P. aeruginosa strains [5]: relatively resistant
- Zones of Inhibition [6]: trace
- Zones of Inhibition [7]: trace
- Zones of Inhibition [8]: trace

Compound: Gentamycin
- Zones of Inhibition [1]: 13 mm
- activity / resistance, P. aeruginosa GN-315 [9]: resistant
- Zones of Inhibition [2]: 9 mm
- Zones of Inhibition [3]: trace
- Zones of Inhibition [4]: 14 mm
- activity / resistance, Bronson Hospital P. aeruginosa strains [5]: relatively resistant
- Zones of Inhibition [6]: 22 mm
- Zones of Inhibition [7]: 11 mm
- Zones of Inhibition [8]: 14 mm

Compound: CCn1cc(C(=O)O)c(=O)c2ccc(C)nc21 [Nalidixic Acid]
- zone of inhibition at 1000 µg/mL [1]: 17 mm
- activity / resistance, P. aeruginosa GN-315 [9]: resistant
- zone of inhibition at 1000 µg/mL [2]: 13 mm
- zone of inhibition at 1000 µg/mL [3]: 12 mm
- zone of inhibition at 1000 µg/mL [4]: 13 mm
- activity / resistance, Bronson Hospital P. aeruginosa strains [5]: relatively resistant
- zone of inhibition at 1000 µg/mL [6]: 13 mm
- zone of inhibition at 1000 µg/mL ([7]; Pseudomonas aeruginosa, read-out: Zones of Inhibition): 13 mm
- zone of inhibition at 1000 µg/mL [8]: 13 mm

Compound: N=C1C=C[C@@]2(O)C[C@H](Cl)CN12 [Antibiotic 354]
- Zones of Inhibition [1]: 24 mm
- activity / resistance, P. aeruginosa GN-315 [9]: active
- Zones of Inhibition [2]: 22 mm
- activity against Gram-negative bacteria (Gram-negative bacteria): active
- Minimum Inhibitory Concentration [10]: 12.5 µg/mL
- Minimum Inhibitory Concentration [11]: 25 µg/mL
- Minimum Inhibitory Concentration [12]: 25 µg/mL
- Minimum Inhibitory Concentration [13]: 25 µg/mL
- Minimum Inhibitory Concentration [14]: 25 µg/mL
- Minimum Inhibitory Concentration [15]: 25 µg/mL
- Minimum Inhibitory Concentration [16]: 12.5 µg/mL
- activity against species of Proteus (species of Proteus): very active
- Zone Of Inhibition (Pseudomonas mildenbergii): 30 mm
- activity against species of Pseudomonas (species of Pseudomonas): very active
- Zones of Inhibition [3]: 22 mm
- Zones of Inhibition [4]: 22 mm
- activity / resistance, Bronson Hospital P. aeruginosa strains [5]: active
- potency in biounits [17]: 8 BU/mg
- Zones of Inhibition [6]: 20 mm
- Minimum Inhibitory Concentration [18]: 7.8 µg/mL
- Minimum Inhibitory Concentration (Salmonella typhi): 15.6 µg/mL
- Minimum Inhibitory Concentration [19]: 7.8 µg/mL
- Minimum Inhibitory Concentration [20]: 31.2 µg/mL
- Minimum Inhibitory Concentration [21]: 125 µg/mL
- Minimum Inhibitory Concentration (Proteus mirabilis): 31.2 µg/mL
- Minimum Inhibitory Concentration [22]: 31.2 µg/mL
- Minimum Inhibitory Concentration [23]: 3.9 µg/mL
- Zones of Inhibition [7]: 21 mm
- Zones of Inhibition [8]: 33 mm
- Zone Of Inhibition (Bacillus subtillis): 25 mm
- basicity (basicity): strongly basic

Compound: NC[C@H]1O[C@H](O[C@H]2[C@H](O)[C@@H](O[C@H]3O[C@H](CO)[C@@H](O)[C@H](N)[C@H]3O)[C@H](N)C[C@@H]2N)[C@H](O)[C@@H](O)[C@@H]1O [Kanamycin]
- zone of inhibition at 1000 µg/mL [1]: 0 mm
- activity / resistance, P. aeruginosa GN-315 [9]: resistant
- zone of inhibition at 1000 µg/mL [2]: 0 mm
- zone of inhibition at 1000 µg/mL [3]: 0 mm
- zone of inhibition at 1000 µg/mL [4]: 11 mm
- activity / resistance, Bronson Hospital P. aeruginosa strains [5]: relatively resistant
- zone of inhibition at 1000 µg/mL [6]: 13 mm
- Zones of Inhibition [7]: trace
- zone of inhibition at 1000 µg/mL [8]: 11 mm
